From the supplement of paper PMC11061612

What was measured:
Assay in all cases: Bliss excess, mean over the matrix (fraction); higher = more synergy
[1] = tested on: PFSK-1 (Other Solid Carcinomas)
In short: (§1)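 Bliss excess equals the observed combination effect minus the expected value EA + EB − EA·EB, where EA and EB are the effects of each agent alone. Combination Emax is the second-highest inhibition within the matrix. Inhibition was scaled from CellTiter-Glo 2.0 luminescence, with 0 set by vehicle wells and 1 by blank wells, after 72 hours of two-drug dosing of cells plated in 1536-well plates.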

IMR-5 (Neuroblastoma) = tested on: IMR-5 (Neuroblastoma)
In short: as §1

RPMI-7951 (Melanoma) = tested on: RPMI-7951 (Melanoma)
In short: as §1

[2] = tested on: NCI-H2347 (Lung Adenocarcinoma)
In short: as §1

BT-20 (Breast Carcinoma) = tested on: BT-20 (Breast Carcinoma)
In short: as §1

GOTO (Neuroblastoma) = tested on: GOTO (Neuroblastoma)
In short: as §1

[3] = tested on: LOU-NH91 (Squamous Cell Lung Carcinoma)
In short: as §1

[4] = tested on: OVISE (Ovarian Carcinoma)
In short: as §1

[5] = tested on: NCI-H322M (Lung Adenocarcinoma)
In short: as §1

A704 (Kidney Carcinoma) = tested on: A704 (Kidney Carcinoma)
In short: as §1

[6] = tested on: SCC-9 (Oral Cavity Carcinoma)
In short: as §1

[7] = tested on: SCC-3 (B-Cell Non-Hodgkin's Lymphoma)
In short: as §1

[8] = tested on: KP-2 (Pancreatic Carcinoma)
In short: as §1

[9] = tested on: KU-19-19 (Bladder Carcinoma)
In short: as §1

[10] = tested on: OCUM-1 (Gastric Carcinoma)
In short: as §1

EW-18 (Ewing's Sarcoma) = tested on: EW-18 (Ewing's Sarcoma)
In short: as §1

[11] = tested on: SNU-C1 (Colorectal Carcinoma)
In short: as §1

[12] = tested on: DG-75 (Burkitt's Lymphoma)
In short: as §1

[13] = tested on: TGBC11TKB (Gastric Carcinoma)
In short: as §1

[14] = tested on: EBC-1 (Squamous Cell Lung Carcinoma)
In short: as §1

Question: Which results are given for `CC1(C)CCC(CN2CCN(c3ccc(C(=O)NS(=O)(=O)c4ccc(NCC5CCOCC5)c([N+](=O)[O-])c4)c(Oc4cnc5[nH]ccc5c4)c3)CC2)=C(c2ccc(Cl)cc2)C1` [Venetoclax] + Cc1cc2ncnn2cc1Nc1ncc2c(n1)n(C1CCOCC1)c(=O)n2C [AZD7648] (first compound max 1 µM, 7x7, partner max 10 µM)?
Answer: Bliss excess [1]: 0.0904; Bliss excess (IMR-5 (Neuroblastoma)): -0.0038; Bliss excess (RPMI-7951 (Melanoma)): -0.0226; Bliss excess [2]: -0.0665; Bliss excess (BT-20 (Breast Carcinoma)): -0.0229; Bliss excess (GOTO (Neuroblastoma)): -0.0442; Bliss excess [3]: -0.0202; Bliss excess [4]: -0.0464; Bliss excess [5]: -0.0397; Bliss excess (A704 (Kidney Carcinoma)): -0.0215; Bliss excess [6]: -0.0211; Bliss excess [7]: -0.0016; Bliss excess [8]: -0.0577; Bliss excess [9]: -0.0571; Bliss excess [10]: -0.0144; Bliss excess (EW-18 (Ewing's Sarcoma)): 0.0188; Bliss excess [11]: -0.0259; Bliss excess [12]: -0.0157; Bliss excess [13]: -0.0592; Bliss excess [14]: 0.031

Question: `CC1(C)CCC(CN2CCN(c3ccc(C(=O)NS(=O)(=O)c4ccc(NCC5CCOCC5)c([N+](=O)[O-])c4)c(Oc4cnc5[nH]ccc5c4)c3)CC2)=C(c2ccc(Cl)cc2)C1` [Venetoclax] + Cn1cnc2c(F)c(Nc3ccc(Br)cc3Cl)c(C(=O)NOCCO)cc21 [Selumetinib] (first compound max 1 µM, 7x7, partner max 3 µM) was tested. Which Bliss excess [1] did it give?
Answer: -0.0092

Question: And the Bliss excess (IMR-5 (Neuroblastoma))?
Answer: 0.0009

Question: What about the Bliss excess (RPMI-7951 (Melanoma)) of the same compound?
Answer: -0.049

Question: What about the Bliss excess [2] of the same compound?
Answer: -0.012

Question: And the Bliss excess (BT-20 (Breast Carcinoma))?
Answer: -0.0021

Question: And the Bliss excess (GOTO (Neuroblastoma))?
Answer: -0.0679

Question: And the Bliss excess [3]?
Answer: -0.0291

Question: And the Bliss excess [4]?
Answer: -0.0678

Question: What about the Bliss excess [5] of the same compound?
Answer: -0.0124

Question: What about the Bliss excess (A704 (Kidney Carcinoma)) of the same compound?
Answer: -0.0299

Question: What about the Bliss excess [6] of the same compound?
Answer: -0.0242

Question: And the Bliss excess [7]?
Answer: 0.028

Question: What about the Bliss excess [8] of the same compound?
Answer: -0.0177

Question: What about the Bliss excess [9] of the same compound?
Answer: 0.0087

Question: What about the Bliss excess [10] of the same compound?
Answer: -0.0508

Question: What about the Bliss excess (EW-18 (Ewing's Sarcoma)) of the same compound?
Answer: -0.104

Question: And the Bliss excess [11]?
Answer: -0.053

Question: What about the Bliss excess [12] of the same compound?
Answer: -0.06

Question: What about the Bliss excess [13] of the same compound?
Answer: 0.0049

Question: And the Bliss excess [14]?
Answer: -0.0542
